Active and inactive are the calls of the source. No cut-off for these calls is given here.
Key:
[1] = system: Huh-7; experiment: Antiproliferative activity against human Huh-7 cells assessed as inhibition of cell proliferation incubated for 24 hrs by CCK-8 assay; type: functional, cell-based; settings: Huh-7, 24 h
[2] = system: Hep 3B2; experiment: Antiproliferative activity against human Hep3B cells assessed as inhibition of cell proliferation incubated for 24 hrs by CCK-8 assay; type: functional, cell-based
[3] = system: HepG2; experiment: Antiproliferative activity against human HepG2 cells assessed as inhibition of cell proliferation incubated for 24 hrs by CCK-8 assay; type: functional, cell-based; settings: HepG2, 24 h
[4] = system: Huh-7; experiment: Induction of apoptosis in human Huh-7 cells assessed as viable cells at 12.5 uM incubated for 24 hrs by Annexin V-FITC/PI staining based flow cytometric analysis (reference value: 92.31 %); type: functional; settings: read-out: Activity
[5] = biological target: Signal transducer and activator of transcription 3 (Homo sapiens) (UniProt P40763); experiment: Inhibition of STAT3 phosphorylation in human Huh-7 cells at 6.25 to 12.5 uM by Western blot analysis; type: cell-based; settings: dose 6.25-12.5 µM
[6] = system: Huh-7; experiment: Induction of apoptosis in human Huh-7 cells assessed as late apoptotic cells at 3.125 uM incubated for 24 hrs by Annexin V-FITC/PI staining based flow cytometric analysis (reference value: 3.19 %); type: functional
[7] = system: Huh-7; experiment: Induction of apoptosis in human Huh-7 cells assessed as viable cells at 3.125 uM incubated for 24 hrs by Annexin V-FITC/PI staining based flow cytometric analysis (reference value: 92.31 %); type: functional; settings: read-out: Activity
[8] = system: Huh-7; experiment: Induction of apoptosis in human Huh-7 cells assessed as viable cells at 6.25 uM incubated for 24 hrs by Annexin V-FITC/PI staining based flow cytometric analysis (reference value: 92.31 %); type: functional; settings: read-out: Activity
[9] = system: Huh-7; experiment: Antimigratory activity against human Huh-7 cells assessed as inhibition of cell migration at 6.25 to 12.5 uM incubated for 48 hrs by scratch wound healing assay; type: functional, cell-based; settings: dose 6.25-12.5 µM
[10] = system: Huh-7; experiment: Induction of apoptosis in human Huh-7 cells assessed as necrotic cells at 6.25 uM incubated for 24 hrs by Annexin V-FITC/PI staining based flow cytometric analysis (reference value: 1.67 %); type: functional
[11] = system: Huh-7; experiment: Induction of apoptosis in human Huh-7 cells assessed as early apoptotic cells at 6.25 uM incubated for 24 hrs by Annexin V-FITC/PI staining based flow cytometric analysis (reference value: 2.83 %); type: functional
[12] = system: Huh-7; experiment: Induction of apoptosis in human Huh-7 cells assessed as necrotic cells at 3.125 uM incubated for 24 hrs by Annexin V-FITC/PI staining based flow cytometric analysis (reference value: 1.67 %); type: functional
[13] = system: Huh-7; experiment: Induction of apoptosis in human Huh-7 cells assessed as late apoptotic cells at 12.5 uM incubated for 24 hrs by Annexin V-FITC/PI staining based flow cytometric analysis (reference value: 3.19 %); type: functional
[14] = system: Huh-7; experiment: Induction of apoptosis in human Huh-7 cells assessed as late apoptotic cells at 6.25 uM incubated for 24 hrs by Annexin V-FITC/PI staining based flow cytometric analysis (reference value: 3.19 %); type: functional
[15] = system: Huh-7; experiment: Induction of apoptosis in human Huh-7 cells assessed as necrotic cells at 12.5 uM incubated for 24 hrs by Annexin V-FITC/PI staining based flow cytometric analysis (reference value: 1.67 %); type: functional
[16] = system: Huh-7; experiment: Induction of apoptosis in human Huh-7 cells assessed as early apoptotic cells at 3.125 uM incubated for 24 hrs by Annexin V-FITC/PI staining based flow cytometric analysis (reference value: 2.83 %); type: functional
[17] = system: Huh-7; experiment: Induction of apoptosis in human Huh-7 cells assessed as early apoptotic cells at 12.5 uM incubated for 24 hrs by Annexin V-FITC/PI staining based flow cytometric analysis (reference value: 2.83 %); type: functional

Signal transducer and activator of transcription 3 (Homo sapiens), sequence (P40763 whole entry): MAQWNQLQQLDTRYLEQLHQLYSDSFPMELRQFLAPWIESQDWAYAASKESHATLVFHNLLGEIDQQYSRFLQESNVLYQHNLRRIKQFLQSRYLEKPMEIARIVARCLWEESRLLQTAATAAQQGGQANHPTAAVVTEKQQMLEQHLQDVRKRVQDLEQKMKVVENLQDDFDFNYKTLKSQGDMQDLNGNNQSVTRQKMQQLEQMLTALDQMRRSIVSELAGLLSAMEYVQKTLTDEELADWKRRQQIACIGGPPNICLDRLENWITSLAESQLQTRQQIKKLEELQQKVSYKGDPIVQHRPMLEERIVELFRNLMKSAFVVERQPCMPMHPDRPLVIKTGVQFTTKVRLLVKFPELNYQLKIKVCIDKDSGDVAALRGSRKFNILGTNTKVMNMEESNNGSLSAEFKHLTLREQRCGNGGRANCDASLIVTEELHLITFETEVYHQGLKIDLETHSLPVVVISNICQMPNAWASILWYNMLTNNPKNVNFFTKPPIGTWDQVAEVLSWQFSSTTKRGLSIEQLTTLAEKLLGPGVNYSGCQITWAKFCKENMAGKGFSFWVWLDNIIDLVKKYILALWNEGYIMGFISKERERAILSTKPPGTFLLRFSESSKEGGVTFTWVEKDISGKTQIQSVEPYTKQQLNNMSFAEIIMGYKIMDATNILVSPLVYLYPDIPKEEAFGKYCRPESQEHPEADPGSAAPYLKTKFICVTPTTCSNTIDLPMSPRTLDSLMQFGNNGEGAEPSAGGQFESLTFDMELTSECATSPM

Structure (SMILES)	IC50 [1] [µM]	IC50 [2] [µM]	IC50 [3] [µM]	other results
C=C(C)CC[C@@H]1C[C@]23C[C@H](CC=C(C)C)C(C)(C)[C@](CC=C(C)C)(C(=O)C(C(=O)c4cccc(O)c4)=C2OC1(C)C)C3=O	28.2	44.8	12.4	
CC(C)=CC[C@@H]1C[C@]23C[C@@H](CC=C(C)C)C(C)(C)[C@](CC=C(C)C)(C(=O)C(C(=O)c4ccc(O)c(O)c4)=C2OC1(C)C)C3=O	9.3	9.3	4.3	viability at 12.5 µM [4]: 83.8%; inhibition [5]: Active; Activity [6]: 3.19%; viability at 3.125 µM [7]: 84.4%; viability at 6.25 µM [8]: 86.5%; Activity [9]: Active; Activity [10]: 1.69%; Activity [11]: 8.39%; Activity [12]: 1.53%; Activity [13]: 3.3%; Activity [14]: 3.38%; Activity [15]: 2.55%; Activity [16]: 10.88%; Activity [17]: 10.38%
C=C(C)[C@H]1C[C@]23C[C@H](CC=C(C)C)C(C)(C)[C@](CC=C(C)C)(C(=O)C(C(=O)c4cccc(O)c4)=C2O[C@@H]1C=C(C)C)C3=O	25.1	17.9	22	
C=C(C)CC[C@H]1C[C@]23C[C@@H](CC=C(C)C)C(C)(C)[C@](CC=C(C)C)(C(=O)C(C(=O)c4ccc(O)c(O)c4)=C2OC1(C)C)C3=O	22.9	15.5	22.5	
C=C(C)CC[C@@H]1C[C@]23C[C@@H](CC=C(C)C)C(C)(C)[C@](CC=C(C)C)(C(=O)C(C(=O)c4ccc(O)c(O)c4)=C2OC1(C)C)C3=O	9.3	17.1	11.3	viability at 12.5 µM [4]: 77.7%; inhibition [5]: Active; Activity [6]: 5.35%; viability at 3.125 µM [7]: 80.8%; viability at 6.25 µM [8]: 80.3%; Activity [9]: Active; Activity [10]: 3.01%; Activity [11]: 11.09%; Activity [12]: 2.09%; Activity [13]: 6.37%; Activity [14]: 5.65%; Activity [15]: 4.17%; Activity [16]: 11.74%; Activity [17]: 11.75%
CC(C)=CC[C@@H]1C[C@]23C[C@H](CCC(C)(C)O)C(C)(C)OC2=C(C(=O)c2ccc(O)c(O)c2)C(=O)[C@@](CC=C(C)C)(C3=O)C1(C)C	12.6	9	3.9	
C=C(C)CC[C@@H](C[C@]12C[C@H](CC=C(C)C)C(C)(C)[C@](CC=C(C)C)(C(=O)C(C(=O)c3cccc(O)c3)=C1O)C2=O)C(=C)C	27.2	20.8	23.2	
CC(C)=CC[C@@H]1C[C@]23C[C@H](CCC(C)(C)O)C(C)(C)[C@](CC=C(C)C)(C(=O)C(C(=O)c4ccc(O)c(O)c4)=C2OC1(C)C)C3=O	20.6	23.9	11.7	
C=C(C)CC[C@@H]1C[C@]23C[C@H](CCC(C)(C)O)C(C)(C)[C@](CC=C(C)C)(C(=O)C(C(=O)c4ccc(O)c(O)c4)=C2OC1(C)C)C3=O	17.3	15.8	9.5	
C=C(C)[C@H]1C[C@]23C[C@H](CC=C(C)C)C(C)(C)[C@](CC=C(C)C)(C(=O)C(C(=O)c4ccc(O)c(O)c4)=C2O[C@@H]1C=C(C)C)C3=O	18.1	18.2	11	
CNC(=O)c1cc(Oc2ccc(NC(=O)Nc3ccc(Cl)c(C(F)(F)F)c3)cc2)ccn1 [SORAFENIB]	9.7	12.4	16.6	
